{"source": "patent US20250090597A1", "about": "“AIRWAY BASAL CELL ENGRAFTMENT METHODS” (TRUSTEES OF BOSTON UNIVERSITY, priority 2023, published 2025)", "key": {"[1]": {"tested_on": "tracheal airway epithelial cells", "experiment": "Post-polidocanol injury mouse tracheal histological time series", "type": "in vivo", "description": "Intra-tracheal delivery of polidocanol was employed to ablate tracheal airway epithelial cells (see e.g., FIG. 9A). […] Am J Resp Cell Mol 24, 662-670; Engler et al. (2020). Cell Reports 33, 108553; the contents of which are incorporated herein by reference in their entireties. It is contemplated herein that acute epithelial sloughing can generate a temporarily exposed niche on the airway basement membrane for exogenous cells to land. To determine the time window for BC transplantation post polidocanol-mediated injury, tracheal tissues were analyzed in a time series following injury. […] Therefore, donor cells were transplanted five hours post-injury.\nAdult recipient mice (8-16 weeks old) were used for all transplantation studies. Tracheal epithelial injury was induced in isoflurane anesthetized mice by intratracheal delivery of 20 μL of 2% polidocanol using the tongue pull method, followed by recovery prior to cell delivery 5-5.5 hours later. Specifically, the recipient animal was anesthetized with 3% isoflurane until the animal developed exaggerated respiratory movements at rates of 1-1.5 breath/second. Then the mouse was lightly restrained by operator, while a second operator delivered polidocanol solution directly into the posterior oropharynx of the mouse. The nose was gently held to encourage the animal to aspirate through the […], about 2-4 times, or until the liquid was no longer visible. For cell transplants, mice were re-anesthetized and 6×10^6 primary BCs or iBCs suspended in 20 μL of DMEM were intratracheally instilled as above."}, "[2]": {"tested_on": "tracheal airway epithelial cells", "conditions": "Borthwick et al. 2001; Engler et al. 2020; cited from earlier work"}}, "data": [{"smiles": "CCCCCCCCCCCCOCCOCCOCCOCCOCCOCCOCCOCCOCCO", "note": "[polidocanol]", "values": [{"measurement": "tracheal epithelium state after polidocanol exposure", "setting": "[1]; 12 hours after polidocanol exposure", "value": "patches of rounded or cuboidal epithelial cells characterized the regenerating epithelium"}, {"measurement": "tracheal epithelial sloughing after polidocanol exposure", "setting": "[1]; five hours after polidocanol exposure", "value": "epithelial sloughing was more complete with sporadic residual individual cells and more denuded basement membrane"}, {"measurement": "tracheal epithelium state after polidocanol exposure", "setting": "[1]; seven hours after polidocanol exposure", "value": "residual cells had flattened to cover the basement membrane"}, {"measurement": "tracheal epithelial sloughing after polidocanol exposure", "setting": "[1]; three hours after polidocanol exposure, 20 μL of 2% polidocanol intratracheal, H&E", "value": "Extensive epithelial sloughing"}, {"measurement": "time to tracheal epithelial sloughing after polidocanol exposure", "setting": "[2]", "value": "within three hours"}]}]}
